In US20250009632A1, “HEIGHT-ADJUSTABLE SPRINKLER” (BTGIN CO., LTD., priority 2021, published 2025):

What was measured:
[1] = system: S. mutans; assay: Analysis of dental plaque reduction (S. mutans attached to glass tube wall, absorbance at 550 nm); type: cell-based, Streptococcus mutans
Procedure: • 1) A brain heart infusion (BHI) broth (5 ml) containing 1% sucrose was added in 50 ml glass tube, and 50 μl of each of sample extracts by concentrations shown in Table 2 below was added. For a control group, sterilized water was used instead of sample extracts. • 2) S. mutans was inoculated to reach 10^5. • 3) The glass tube was cultured statically in an incubator at 37° C. for 24 hours while tilted at 30°. • 4) After culturing, 5 ml of 0.5 M NaOH solution was added to suspend the cells attached to the wall. • 5) One milliliter of suspension was taken and measured for absorbance at 550 nm. S. mutans strain was cultured statically for 24 hours after inoculation while tilted at 30°. When the culture medium was carefully poured out after the static culture, it was observed that bacteria were attached to the wall of the glass tube (FIG. 1, red arrow). Thereafter, the bacteria were suspended by addition of 0.5 M NaOH, and 1 ml of the suspended solution was measured for absorbance at 550 nm. As a result, there was a reduction in dental plaque from a BTEX-K concentration of 50 μg/ml.

[2] = system: S. mutans; assay: Amount of organic acid produced in dental plaque (HPLC of S. mutans culture medium); type: cell-based, Streptococcus mutans; details: 48 h culture, high concentration (100 μg/ml)
Procedure: • 1) To a brain heart infusion (BHI) broth (2 ml), 20 μl of each of sample extracts by concentrations in Table 3 below was added. For a control group, sterilized water was used instead of sample extracts. • 2) S. mutans was inoculated to reach 10^5-10^6. • 3) The cells were cultured in an incubator at 37° C. for 48 hours. • 4) The amount of the acid secreted in the medium was measured using HPLC.
**HPLC: analyzed by the joint equipment research lab of Dankook University Industry-Academia Cooperation (Citric, pyruvic, succinic, lactic, formic, acetic, propionic, isobutyric, butyric, and isovaleric acid).
S. mutans strain was inoculated into 2 ml of the brain heart infusion (BHI) liquid medium at a concentration of 1×10^5 CFU/ml, and a predetermined concentration of each sample was injected, followed by culturing for 48 hours. The culture was centrifuged at 13,000 rpm for 5 minutes, and then the supernatant was transferred to a new tube and filtered with a 0.45 μm syringe filter. Thereafter, HPLC analysis was performed. HPLC analysis conditions are as follows. Mobile phase (Isocratic elution): 10 mM potassium phosphate monobasic (pH 3, a phosphoric acid salt)/MeOH=(98/2), Column oven Temp.: 30° C., flow rate: 1 ml/min, wavelength: 220 nm, and injection amount: 10 μl

CC(C)=CCC[C@](C)(O[C@@H]1O[C@H](CO)[C@@H](O)[C@H](O)[C@H]1O)[C@H]1CC[C@]2(C)[C@@H]1[C@H](O)C[C@@H]1[C@@]3(C)CC[C@H](O)C(C)(C)[C@@H]3CC[C@]12C [ginsenoside compound K]
growth of S. mutans strain ([1]; at 100 μg/ml, as seen in the dental plaque reduction experiment): inhibited | concentration at which dental plaque reduction was observed ([1]; summary statement, absorbance at 550 nm): 20 µg/mL | reduction in lactic acid content compared to the control group ([2]; HPLC, p<0.0001): approximately 2 fold | HPLC peak at retention time of around 4.6 minutes (lactic acid) ([2]; vs control): decreased
